Test results published in US11534457B2, “Use of dextran sulfate” (priority 2017, dated 2022).
Marks after values point to notes of the source that are not given here.

Tested on: severe traumatic brain injury (sTBI)
Assay: sTBI in rats, HPLC of purine-pyrimidine / energy metabolites in brain (Example 3)
Type: in vivo, Male Wistar rats
Experimental: The experimental protocol used in this study was approved by the Ethical Committee of the Catholic University of Rome, according to international standards and guidelines for animal care. Male Wistar rats of 300-350 g body weight (b.w.) were fed with standard laboratory diet and water ad libitum in a controlled environment.
1) n=6 animals subjected to sTBI, with drug administration after 30 minutes and sacrifice at 2 days post-TBI (Acute phase 1)
2) n=6 animals subjected to severe-TBI, with drug administration after 30 minutes and sacrifice at 7 days post-TBI (Acute phase 2).
3) n=6 animals subjected to severe-TBI, with drug administration after 3 days and sacrifice at 7 days post-TBI (Chronic phase).
As the anesthetic mixture, animals received 35 mg/kg b.w. ketamine and 0.25 mg/kg b.w. midazolam by i.p. injection. sTBI was induced by dropping a 450 g weight from 2 m height on to the rat head that had been protected by a metal disk previously fixed on the skull, according to the “weight drop” impact acceleration model (Marmarou et al., A new model of diffuse brain injury in rats. Part I: Pathophysiology and biomechanics. J Neurosurg. 1994; 80: 291-300). […] At the end of each period of treatment, rats were anesthetized again and then immediately sacrificed.
The drug treatment was a subcutaneous injection of 0.5 ml of LMW-DS (15 mg/kg) and administered according to the aforementioned schematic protocol.
An in vivo craniectomy was performed in all animals during anesthesia, after carefully removing the rat's skull, the brain was exposed and removed with a surgical spatula and quickly dropped in liquid nitrogen. After the wet weight (w.w.) determination, tissue preparation was affected as previously disclosed (Tavazzi et al., Cerebral oxidative stress and depression of energy metabolism correlate with severity of diffuse brain injury in rats. Neurosurgery. 2005; 56: 582-589; Vagnozzi et al., Temporal window of metabolic brain vulnerability to concussions: mitochondrial-related impairment-part I. Neurosurgery. 2007; 61: 379-388; Tavazzi et al., Temporal window of metabolic brain vulnerability to concussions: oxidative and nitrosative stresses-part II. Neurosurgery. 2007; 61: 390-395; Amorini et al., Severity of experimental traumatic brain injury modulates changes in concentrations of cerebral free amino acids. J Cell Mol Med. 2017; 21: 530-542.). Briefly, whole brain homogenization was performed with 7 ml of ice-cold, nitrogen-saturated, precipitating solution composed by CH3CN+10 mM KH2PO4, pH 7.40, (3:1; v:v), and using an Ultra-Turrax set at 24,000 rpm/min (Janke & Kunkel, Staufen, Germany). After centrifugation at 20,690×g, for 10 min at 4° C., the clear supernatants were saved, pellets were supplemented with 3 ml of the precipitating solution and homogenized again as described above. A second centrifugation was performed (20,690×g, for 10 min at 4° C.), pellets were saved, supernatants combined with those previously obtained, extracted by vigorous agitation with a double volume of HPLC-grade CHCl3 and centrifuged as above. The upper aqueous phases containing water-soluble low-molecular weight compounds were collected, subjected to chloroform washings for two more times (this procedure allowed the removal of all the organic solvent and of any lipid soluble compound from the buffered tissue extracts), adjusted in volumes with 10 mM KH2PO4, pH 7.40, to have ultimately aqueous 10% tissue homogenates and saved at −80° C. until assayed. […]

[1] = Acute phase 1: 15 mg/kg s.c. 30 min post-sTBI, sacrifice 2 days
[2] = Acute phase 2: 15 mg/kg s.c. 30 min post-sTBI, sacrifice 7 days

Substance: low molecular weight dextran sulfate [LMW-DS]
- brain MDA levels (15 mg/kg s.c.): significant reduction
- brain NAA and its substrates (15 mg/kg s.c.): significant improvements
- brain ascorbic acid and GSH levels (15 mg/kg s.c.): significant improvement
- brain nitrate concentrations (15 mg/kg s.c., acute and chronic phases of sTBI): significantly decreased
- ADO, cerebral concentration [1]: 71.67 ± 15.87 nmol/g (w.w.)
- ADP, cerebral concentration [1]: 279.34 ± 29.59^b nmol/g (w.w.)
- ADP-ribose, cerebral concentration [1]: 137.87 ± 43.18^a nmol/g (w.w.)
- AMP, cerebral concentration [1]: 53.61 ± 17.91^a,c,j nmol/g (w.w.)
- ATP, cerebral concentration [1]: 1464.25 ± 99.09^a,h nmol/g (w.w.)
- CDP choline, cerebral concentration [1]: 10.93 ± 3.22^b,h nmol/g (w.w.)
- CDP, cerebral concentration [1]: 25.53 ± 6.83^a,c nmol/g (w.w.)
- CMP, cerebral concentration [1]: 30.12 ± 9.97^a,h nmol/g (w.w.)
- CTP, cerebral concentration [1]: 18.98 ± 6.58^a,g nmol/g (w.w.)
- CoA-SH, cerebral concentration [1]: 21.61 ± 3.42^a,h nmol/g (w.w.)
- GDP glucose, cerebral concentration [1]: 38.71 ± 6.86 nmol/g (w.w.)
- GDP, cerebral concentration [1]: 158.72 ± 24.57^a nmol/g (w.w.)
- GMP, cerebral concentration [1]: 177.00 ± 32.39^a,g nmol/g (w.w.)
- GSH, cerebral concentration [1]: 2649.50 ± 397.31^a,d nmol/g (w.w.)
- GSSG, cerebral concentration [1]: 185.21 ± 48.10 nmol/g (w.w.)
- GTP, cerebral concentration [1]: 255.29 ± 45.21^a,g nmol/g (w.w.)
- IMP, cerebral concentration [1]: 67.71 ± 10.63^g,i nmol/g (w.w.)
- MDA, cerebral concentration [1]: 12.47 ± 2.09^a,c,g nmol/g (w.w.)
- NADH, cerebral concentration [1]: 15.49 ± 2.05^c,j nmol/g (w.w.)
- NADPH, cerebral concentration [1]: 6.22 ± 1.73 nmol/g (w.w.)
- NADP^+, cerebral concentration [1]: 17.95 ± 3.28^a nmol/g (w.w.)
- NAD^+, cerebral concentration [1]: 404.63 ± 51.10^a,c,i nmol/g (w.w.)
- NM, cerebral concentration [1]: 6147.91 ± 989.12^a nmol/g (w.w.)
- NO2, cerebral concentration [1]: 216.03 ± 41.74^a nmol/g (w.w.)
- NO3, cerebral concentration [1]: 210.64 ± 91.95^d nmol/g (w.w.)
- UDP, cerebral concentration [1]: 61.83 ± 10.23^a,g nmol/g (w.w.)
- UDP-Gal, cerebral concentration [1]: 119.45 ± 12.50 nmol/g (w.w.)
- UDP-GalNac, cerebral concentration [1]: 19.17 ± 4.01^a nmol/g (w.w.)
- UDP-Glc, cerebral concentration [1]: 32.14 ± 4.59^g nmol/g (w.w.)
- UDP-GlcNac, cerebral concentration [1]: 95.85 ± 19.73^h,i nmol/g (w.w.)
- UMP, cerebral concentration [1]: 107.80 ± 21.62 nmol/g (w.w.)
- UTP, cerebral concentration [1]: 123.46 ± 15.42^d nmol/g (w.w.)
- acetyl-CoA, cerebral concentration [1]: 21.56 ± 6.22^a,g,i nmol/g (w.w.)
- adenine, cerebral concentration [1]: 44.82 ± 6.31^a,d,g nmol/g (w.w.)
- ascorbic acid, cerebral concentration [1]: 3733.10 ± 277.88^a,d nmol/g (w.w.)
- creatinine, cerebral concentration [1]: 24.55 ± 3.20^b,g,i nmol/g (w.w.)
- cytidine, cerebral concentration [1]: 15.40 ± 3.04 nmol/g (w.w.)
- cytosine, cerebral concentration [1]: 17.69 ± 2.50^b,d nmol/g (w.w.)
- guanine, cerebral concentration [1]: 4.80 ± 1.24^b nmol/g (w.w.)
- guanosine, cerebral concentration [1]: 20.71 ± 5.66 nmol/g (w.w.)
- hypoxanthine, cerebral concentration [1]: 14.47 ± 2.87^a nmol/g (w.w.)
- inosine, cerebral concentration [1]: 92.55 ± 31.20^c nmol/g (w.w.)
- malonyl-CoA, cerebral concentration [1]: 12.33 ± 1.82^b nmol/g (w.w.)
- orotic acid, cerebral concentration [1]: 8.80 ± 2.45^b,h,j nmol/g (w.w.)
- thymidine, cerebral concentration [1]: 0.69 ± 0.11 nmol/g (w.w.)
- uracil, cerebral concentration [1]: 14.56 ± 5.44 nmol/g (w.w.)
- uric acid, cerebral concentration [1]: 23.62 ± 3.77^a,d,h nmol/g (w.w.)
- uridine, cerebral concentration [1]: 76.35 ± 12.85^a,c nmol/g (w.w.)
- xanthine, cerebral concentration [1]: 9.46 ± 2.34^d nmol/g (w.w.)
- β-pseudouridine, cerebral concentration [1]: 6.65 ± 1.30^g,i nmol/g (w.w.)
- ADO, cerebral concentration [2]: 82.11 ± 16.51^a nmol/g (w.w.)
- ADP, cerebral concentration [2]: 264.07 ± 28.29^b,e,j nmol/g (w.w.)
- ADP-ribose, cerebral concentration [2]: 141.96 ± 23.56^a,e,j nmol/g (w.w.)
- AMP, cerebral concentration [2]: 57.70 ± 23.01^a,e,j nmol/g (w.w.)
- ATP, cerebral concentration [2]: 1632.23 ± 90.07^a,e,j nmol/g (w.w.)
- CDP choline, cerebral concentration [2]: 6.91 ± 1.86 nmol/g (w.w.)
- CDP, cerebral concentration [2]: 24.29 ± 6.76^a nmol/g (w.w.)
- CMP, cerebral concentration [2]: 15.68 ± 2.12^f,j nmol/g (w.w.)
- CTP, cerebral concentration [2]: 32.63 ± 3.99^e,i nmol/g (w.w.)
- CoA-SH, cerebral concentration [2]: 30.57 ± 6.02^f nmol/g (w.w.)
- GDP glucose, cerebral concentration [2]: 49.25 ± 10.33^a nmol/g (w.w.)
- GDP, cerebral concentration [2]: 126.70 ± 31.35^a,j nmol/g (w.w.)
- GMP, cerebral concentration [2]: 91.47 ± 12.35^e,i nmol/g (w.w.)
- GSH, cerebral concentration [2]: 2821.50 ± 242.82^a,e nmol/g (w.w.)
- GSSG, cerebral concentration [2]: 219.54 ± 53.36 nmol/g (w.w.)
- GTP, cerebral concentration [2]: 336.65 ± 35.18^a,e,j nmol/g (w.w.)
- IMP, cerebral concentration [2]: 102.63 ± 22.09^a nmol/g (w.w.)
- MDA, cerebral concentration [2]: 4.82 ± 1.73^a,e,i nmol/g (w.w.)
- NADH, cerebral concentration [2]: 13.12 ± 4.19^e nmol/g (w.w.)
- NADPH, cerebral concentration [2]: 7.05 ± 2.21 nmol/g (w.w.)
- NADP^+, cerebral concentration [2]: 21.27 ± 4.19^b,e,j nmol/g (w.w.)
- NAD^+, cerebral concentration [2]: 401.18 ± 34.53^a,e,i nmol/g (w.w.)
- NM, cerebral concentration [2]: 7262.84 ± 749.73^a,e nmol/g (w.w.)
